How the values were obtained:
hTRα [1] = target: T1, hTRα (Homo sapiens, UniProt P10827); test: Receptor binding assay: competition with [125I]T3 for binding to recombinant hTRα
T1 construct: made in house; host or cells: E. coli
T1 sequence (P10827 1-410 isoform P10827-2): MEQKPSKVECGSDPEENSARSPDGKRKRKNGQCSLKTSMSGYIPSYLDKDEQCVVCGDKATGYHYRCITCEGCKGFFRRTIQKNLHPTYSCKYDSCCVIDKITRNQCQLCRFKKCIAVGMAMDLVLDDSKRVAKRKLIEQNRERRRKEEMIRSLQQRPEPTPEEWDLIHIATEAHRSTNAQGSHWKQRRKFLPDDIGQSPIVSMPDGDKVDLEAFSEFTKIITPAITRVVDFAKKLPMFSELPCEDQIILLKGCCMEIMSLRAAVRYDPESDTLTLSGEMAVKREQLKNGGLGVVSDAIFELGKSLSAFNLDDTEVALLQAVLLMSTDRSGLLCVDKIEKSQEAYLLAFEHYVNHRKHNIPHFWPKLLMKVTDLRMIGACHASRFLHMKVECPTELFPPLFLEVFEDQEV
Experimental: (§1) To test the ability of synthesized human thyroid receptor (hTR) ligands to bind to two subtypes of hTR, hTRα and hTRβ, the binding affinity of a TR ligand for a TR can be assayed using TRs expressed in E. coli and [^125 I ] […] The binding affinity of a ligand for its receptor is defined by a constant termed Kd and can be calculated using a curve fitting program.
(§2) The ability of [^125 I] […] In control experiments, either purified recombinant hTRα or hTRβ was incubated with [^125 I] […] To test the analogues, either purified recombinant hTRα or hTRβ was incubated with [^125 I]

hTRβ [2] = target: T2, hTRβ (Homo sapiens, UniProt P10828); test: Receptor binding assay: competition with [125I]T3 for binding to recombinant hTRβ
T2 construct: expressed in transfected cells; host or cells: HeLa cells
T2 sequence (P10828 1-461): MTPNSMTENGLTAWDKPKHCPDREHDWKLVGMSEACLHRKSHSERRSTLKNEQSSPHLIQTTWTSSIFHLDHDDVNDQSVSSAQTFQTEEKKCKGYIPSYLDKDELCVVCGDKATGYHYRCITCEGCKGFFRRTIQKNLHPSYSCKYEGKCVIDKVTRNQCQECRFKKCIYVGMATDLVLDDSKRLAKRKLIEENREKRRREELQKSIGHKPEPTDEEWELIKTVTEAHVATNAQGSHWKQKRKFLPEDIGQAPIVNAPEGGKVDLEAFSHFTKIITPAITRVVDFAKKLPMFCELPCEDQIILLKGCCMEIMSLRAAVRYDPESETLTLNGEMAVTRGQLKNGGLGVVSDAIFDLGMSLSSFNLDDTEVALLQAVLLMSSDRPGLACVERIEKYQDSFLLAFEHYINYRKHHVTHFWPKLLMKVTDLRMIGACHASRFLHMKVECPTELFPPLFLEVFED
Experimental: as §1, §2

hTRα [3] = target: T1, hTRα; test: Cellular transcription (luciferase) assay in HeLa cells overexpressing hTRα; format: cell-based; details: for activation of transcription via hTRα (luciferase): 24 hours at 37° C., T3 10^-12 to 10^-7 M, I-3 10^-10 to 3×10^-5 M, I-1 10^-9 to 3×10^-5 M
Experimental: (§3) Cellular transactivation assays can be performed according to the procedure in Ribeiro R. C. et al. (1996) J. Biol. Chem. 271, 17147-17151. Briefly, HeLa cells are grown in 15 cm dishes in DME H-21, 4.5 g/L glucose with 10% newborn bovine serum, 2 mM glutamine, 50 units/ml penicillin, and 50 μg/ml streptomycin.
(§4) For transfections, cells are trypsinized, resuspended in buffer (PBS, 0.1% glucose), and mixed with a reporter gene construct and with or without the appropriate thyroid receptor (TR) expression vectors (CMV TR β1,CMV TR α1). One such reporter gene construct consists of a synthetic TR response element (DR-4) containing two copies of a direct repeat spaced by four nucleotides (AGGTCA-caggAGGTCA) cloned into the HindIII site of the pUC19 polylinker immediately upstream of a minimal (-32/+45) thymidine kinase promoter linked to luciferase coding sequences. Another reporter gene construct that can be used consists of the β-galactosidase coding sequence fused downstream of an actin promoter.
(§5) Cells in 0.5 ml of buffer (8+/-2 million cells) are electroporated using a Bio-Rad gene pulser at 0.35 kvolts and 960 microfarads. […] After incubation at 37° C. for 24 hours, incubation media is discarded and the cells are detached with 1 ml of calcium/magnesium-free PBS, 1mM EDTA, prewarmed at 37° C., and transferred to 1.5 ml Eppendorf tubes. Cells are pelleted by centrifugation in a microfuge for 15 seconds at room temperature. The supernatants are aspirated and the pellets are lysed by addition of 120 μl of Tris-Cl 0.25 M pH 7.6, 0.1% Triton. After resuspension by vortexing for 5-10 sec, the lysates are pelleted by centrifugation in a microfuge for 5 min at room temperature. One hundred μl of each Eppendorf tube lysate is added to 300 μl of 25 mM glycylglycine pH 7.8, 15 mM MgSO4, 4 mM EGTA, 15 mM potassium phosphate pH 7.8, 1 mM DTT, 2 mM ATP, and 0.2 mM Luciferine. The light output is measured for 10 sec at room temperature with a luminometer (Analytical Luminescence Laboratory, MONOLIGHT^R 1500). […]

hTRβ [4] = target: T2, hTRβ; test: Cellular transcription (luciferase) assay in HeLa cells overexpressing hTRβ; format: cell-based; details: for activation of transcription via hTRβ (luciferase): 24 hours at 37° C., T3 10^-12 to 10^-7 M, I-3 10^-10 to 3×10^-5 M, I-1 10^-9 to 3×10^-5 M
Experimental: as §3, §4, §5

[5] = test system: luciferase reporter gene (HeLa cells); test: Luciferase activity in HeLa cells containing reporter constructs but no overexpressed hTRs; format: cell-based; details: highest concentration [10^-5]
Experimental: as §3, §4
Cells in 0.5 ml of buffer (8+/-2 million cells) are electroporated using a Bio-Rad gene pulser at 0.35 kvolts and 960 microfarads. […] The light output is measured for 10 sec at room temperature with a luminometer (Analytical Luminescence Laboratory, MONOLIGHT^R 1500).

HeLa cells = test: Toxicity in HeLa cells (change in cell morphology, or lifting off of cells from a growth surface); format: cell-based
[6] = test system: β-galactosidase reporter gene construct (HeLa cells); test: β-galactosidase reporter control expression in HeLa cells; format: cell-based; details: 1nM T3 or Compound (I-1) 10^-6 M to 10^-5 M
Text: as §4
Cells in 0.5 ml of buffer (8+/-2 million cells) are electroporated using a Bio-Rad gene pulser at 0.35 kvolts and 960 microfarads. […] After incubation at 37° C. for 24 hours, incubation media is discarded and the cells are detached with 1 ml of calcium/magnesium-free PBS, 1mM EDTA, prewarmed at 37° C., and transferred to 1.5 ml Eppendorf tubes. Cells are pelleted by centrifugation in a microfuge for 15 seconds at room temperature. The supernatants are aspirated and the pellets are lysed by addition of 120 μl of Tris-Cl 0.25 M pH 7.6, 0.1% Triton. […] The light output is measured for 10 sec at room temperature with a luminometer (Analytical Luminescence Laboratory, MONOLIGHT^R 1500).

TRβ = details: literature / earlier patent; cited from earlier work

Compound | Kd (hTRα [1]) | Kd (hTRβ [2]) | activation of transcription via hTRα (luciferase) (hTRα [3]) | activation of transcription via hTRβ (luciferase) (hTRβ [4]) | expression of β-galactosidase [6] | also measured
CCCCN(C)C(=O)CCCCCCCCCCC(c1ccc(O)c(C(C)C)c1)c1c(C)cc(OCC(=O)O)cc1C (centres unmarked) [Compound I-1] | ~77 nM | ~180 nM | did not appear to activate hTR-mediated transcription | did not appear to activate hTR-mediated transcription | not affected | competition with T3 / antagonism, hTRα (hTRα [3]): still able to compete with T3; competition with T3 / antagonism, hTRβ (hTRβ [4]): still able to compete with T3; luciferase activity without cotransfected TR-expression construct [5]: occurs even when a TR-expression construct is not cotransfected into HeLa cells; concentration at which toxicity was observed (HeLa cells): 10 µM
CCCCN(C)C(=O)CCCCCC/C=C\CCC(c1ccc(O)c(C(C)C)c1)c1c(C)cc(OCC(=O)O)cc1C (centres unmarked) [Compound I-2] | ~237 nM | ~721 nM | – | – | – | –
C=CCC(c1ccc(O)c(C(C)C)c1)c1c(C)cc(OCC(=O)O)cc1C (centres unmarked) [Compound I-3] | ~138 nM | ~36 nM | able to stimulate transcription and translation of the luciferase gene through both subtypes of hTR, though to a lesser degree than. T3 | able to stimulate transcription and translation of the luciferase gene through both subtypes of hTR, though to a lesser degree than. T3 | – | –
N[C@@H](Cc1cc(I)c(Oc2ccc(O)c(I)c2)c(I)c1)C(=O)O [Compound T3, 3,5,3'-triiodo-L-thyronine, reference compound] | – | – | – | – | not affected | –
Cc1cc(OCC(=O)O)cc(C)c1Cc1ccc(O)c(C(C)C)c1 [GC-1] | – | – | – | – | – | affinity and TR subtype selectivity (background) (TRβ): high affinity TRP-selective agonist ligand

From patent US6107517A, “Thyroid hormone analogues and methods for their preparation” (The Regents of the University of California, priority 1999, dated 2000)
